The results in this text go back to patent publication US20230041334A1, “METHODS AND COMPOSITIONS FOR SMOKING CESSATION” (BEHAVIORAL DIAGNOSTICS, LLC, priority 2019, published 2023).

Holding throughout (assay type): in vivo, human
Assay [1] has as its system Smokers interested in stopping smoking. Description: Randomized placebo-controlled sildenafil smoking cessation trial with incentive-based programming; cessation determined by serum cotinine. Here is the method: (§1) Smokers interested in stopping smoking were imaged using a dual energy computerized tomography (DECT) protocol to determine baseline lung density and perfusion, then randomized to receive either 20 mg of sildenafil or placebo each day. Subjects were then followed each month for three months (i.e., 30, 60 and 90 days) to asses changes in lung density via DECT and alterations in the diffusing capacity of the lung for carbon monoxide (DLCO) (e.g., improved gas exchange) in conjunction with the determination of the level of smoking cessation by means of serum cotinine levels. As per standard protocol, the research team was blinded to treatment group until the subject had exited the trial and DECT image analysis was completed. Importantly, because serum cotinine levels were used to determine smoking cessation status, subjects were not allowed to use nicotine replacement therapy. However, in order to encourage the likelihood of smoking cessation, subjects were given incentive-based programming.
In this paradigm, subjects are financially rewarded for smoking cessation (see, for example, Alford et al., 2010, PNAS USA, 107:7485-90; Iyer et al., 2016, Am. J. Resp. Crit. Care Med., 193:652-61).
The results were analyzed from the first 48 subjects who enrolled in the study. Briefly, the subjects in the cohort were largely of European ancestry, and the cohort was evenly balanced between males and females, with subjects of both genders tending to be between 30 and 60 years of age. As evidenced by their pre-experiment serum cotinine levels, they also tended to be moderate to heavy smokers.
In order to qualify for the financial incentive of $400, the subjects had to complete all 4 visits (intake and 3 follow-up visits at 30, 60 and 90 days) and had to quit smoking as evidenced by serum cotinine levels. In total, of the first 48 subjects enrolled in the study, 9 subjects completed just the intake, 7 subjects participated in both the intake and first visit, and 31 subjects completed all 4 visits in the study (Table 3). Data from one subject who dropped immediately from the study is not available.

Assay [2] shares this test system. Nature of the assay: Diffusing capacity of the lung for carbon monoxide (DLCO) in the sildenafil trial. The settings on record: 20 mg/day. Here is the method: as §1
For assay [3] the test system is unchanged. Nature of the assay: Lung density (inflammation) by dual energy computerized tomography (DECT) in the sildenafil trial. The following applies: 20 mg/day. Here is the method: as §1
[4] abbreviates: group who successfully stopped smoking for 90 days on sildenafil.
[5] abbreviates: sildenafil without smoking cessation.

As for `CCCc1nn(C)c2c(=O)[nH]c(-c3cc(S(=O)(=O)N4CCN(C)CC4)ccc3OCC)nc12` [Sildenafil, sildenafil], the “Cessation: <50% reduction of cotinine (number of subjects)” value in assay [1] (20 mg sildenafil each day, N=24) was found to be 3. Also, the “Cessation: Visits with <2 ng/ml cotinine (number of visits)” value in assay [1] (20 mg sildenafil each day, N=24, 30-, 60- and 90-day visits) amounted to 36. Besides, the “Cessation: Quit at 90 days (number of subjects)” value in assay [1] (20 mg sildenafil each day, N=24, by serum cotinine) was 12. Besides, in assay [1] (20 mg/day, 30-, 60- and 90-day visits, vs. placebo p<0.002, Exact Test), the “Follow-up visits with negative serum cotinine values (<2 ng/ml)” value is listed as 36 of 72. Besides, the “Females having achieved abstinence at 90 days (negative serum cotinine)” value in assay [1] (20 mg/day, females) is 6. The “Full or partial response of treatment (≥average 50% reduction of intake cotinine levels compared to average of 30-, 60- and 90-day visits) (subjects)” value in assay [1] (20 mg/day, intention to treat, vs. placebo p<0.02 Exact Test) is 15 of 24. In addition, the “Complete cessation (subjects)” value in assay [1] (20 mg/day, intention to treat, vs. placebo p<0.09, Exact Test) is reported as 12 of 24. For the same compound, in assay [1] (20 mg/day, males), the “Males having achieved abstinence at 90 days (negative serum cotinine)” value is recorded as 6. Moreover, the “Change in DLCO” value is “improvement in DLCO” in assay [2] (setting [4]) and “no significant change” in assay [2] (setting [5]). The “Change in lung density (inflammation)” value in assay [3] (setting [4]) is “significant loss of lung density”; in assay [3] (setting [5]), “no significant change”.
